Test results: US11566260B2, “Potentiating agents for protecting plants from fungal infections” (UNIVERSITE D'ANGERS, priority 2012, dated 2023)

How the values were obtained:
Assay type in all cases: cell-based
[1] = system: Alternaria brassicicola; assay: Test B: potentiating effect with a plant defense molecule on growth of Alternaria brassicicola; conditions: Alternaria brassicicola
Experimental: (§1) Test B: • 1) Determining a non-fungicidal amount of said agent, preferably according to Test A; • 2) Determining a non-fungicidal amount of a plant defense molecule, preferably according to Test A; • 3) Measuring growth of fungal conidia in a medium comprising a combination of a non-fungicidal amount of the agent, as determined in step 1, and a non-fungicidal amount of the plant defense molecule, as determined in step 2. In one embodiment, the growth is measured as follows: Suspensions of fungal conidia (starting material: 10^5 conidia/mL) are cultured in liquid medium, such as, for example, 300 μL of PBD medium, on microplate wells at 25° C. with shaking at 175 rpm for 5 minutes every 10 minutes. Non-fungicidal concentrations of the tested agent and of the tested plant defense molecule are added on wells, and fungal growth is measured during at least 5 hours, preferably at least 10, 20, 30 hours. Methods for measuring fungal growth are well known from the skilled artisan. Examples of such methods include, but are not limited to, photometry, such as, for example, spectrophotometric methods; or nephelometry, such as, for example, laser nephelometry as described in Joubert et al (Biotechniques, 2010, 48:399-404). Growth inhibition is measured by comparing the Area Under Curves (AUC) of treated samples and of untreated controls.
The potentiating effect of chelerythrin is measured in a suspension of conidia treated with a plant defense molecule, camalexin, which is present at a non-fungicidal amount as determined hereinabove. Said non-fungicidal amount is consistent with the amount of camalexin produced by an infected plant organ.
Alternaria brassicicola growth was measured as described hereinabove.
A non-fungicidal amount of chelerythrin (as determined in Example 1a) and/or a non-fungicidal amount of camalexin (as determined in Example 1b) or 10 μL of DMSO are added per well, and growth curves were drawn (FIG. 3).
In the Table 5 below are shown compounds (column 1) having a potentiating effect of a plant defense molecule (column 2) for the inhibition of a pathogenic fungus (column 3). The type of the potentiating agent in this particular situation is given in column 4 (homologous or heterologous). Triads were identified according to Test B.

[2] = system: Alternaria dauci; assay: Test B: potentiating effect with a plant defense molecule on growth of Alternaria dauci; conditions: plant defense molecule 6-methoxymellein
Experimental: as §1, with “Examples of such methods include, but are not limited to, photometry, such as, for example, spectrophotometric methods; or nephelometry, such as, for example, laser nephelometry as described in Joubert et al (Biotechniques, 2010, 48:399-404).” left out, “controls. […]” for “controls.”
Following the aforementioned growth inhibition protocol, the following treatments are assessed: • 6-methoxymellein 125 μM, • 6-methoxymellein 100 μM, • 6-methoxymellein 125 μM and M. cordata extract (10 μM of Sanguinarine), • 6-methoxymellein 100 μM and M. cordata extract (10 μM of Sanguinarine).

[3] = system: Botrytis cinerea; assay: Test B: potentiating effect with a plant defense molecule on Botrytis cinerea
Experimental: as §1, with “controls. […]” for “controls.”

[4] = plant defense molecule Brassinin

| SMILES | Type of potentiating agent (compound having a potentiating effect of the plant defense molecule) ([1]; plant defense molecule Resveratrol) | Type of potentiating agent (compound having a potentiating effect of the plant defense molecule) [2] | Type of potentiating agent (compound having a potentiating effect of the plant defense molecule) [3, 4] | Type of potentiating agent (compound having a potentiating effect of the plant defense molecule) ([3]; plant defense molecule Camalexin) | Type of potentiating agent (compound having a potentiating effect of the plant defense molecule) [1, 4] |
| --- | --- | --- | --- | --- | --- |
| CCOc1cc2c3cc(OC)c(OC)cc3cnc2c2cc(OC)c(OC)cc12 [Compound 1] | Heterologous | – | – | – | – |
| CCOc1cc2c3cc(OC)c(OC)cc3c[n+](C)c2c2cc(OC)c(OC)cc12 [Compound 2] | – | Homologous | Homologous | Homologous | Homologous |
